Like-named read-outs stand apart in the source and are kept apart here. Positions of bridges follow the written chain, without caps; N, C: chain ends. No end group written: not given here.
Experiments:
[1] = test system: human pancreatic adenocarcinoma cell line Capan-1; assay: Cytotoxicity test with BCECF-AM and propydium iodure; assay type: cell-based; details: PCI 10-75 μg/mL, 24 h
Description: The cytotoxicity test is based on the use of two fluorophores, BCECF-AM and propydium iodure. The first one is employed to mark the viable cells because it quickly penetrates into the cellular cytoplasm where it is fragmented by the action of the esterases, becoming a fluorescent molecule. These esterases only being active when the cells are alive. Propydium iodine is a derivative of the phenanthrene which specifically joins the polynucleotide structure of nucleic acids intercalating between their pairs of bases. Due to its ionic structure it cannot penetrate into the live cells but it can do so into the dead ones, labeling DNA and RNA. […]
1. The absorbancy of the plate was read using cytofluor. The cytofluor is a fluorometer especially designed for reading the fluorescence of the cells; it is controlled by computer which makes it possible to employ various filter combinations of excitation-emission at the same time. […] These filters allow us to detect the fluorescence of the two reagents employed for the cytotoxicity test such as BCECF-AM and propydium iodide. This first reading corresponds to the self-fluorescence of the cells, which it will later be deducted from the final value of the fluorescence. […]
3. Afterwards, the absorbancy of the plate was read. This measure corresponds to the total fluorescence.
4. […] Thus, we eliminated the fluorescence that had not been incorporated by the cells. […]

cell line Capan-1 = assay: Studies of PCI disappearance from the culture medium; assay type: cell-based, human; details: 50 μg/mL flask, 24 h; CPA inhibitory activity and ELISA
Experimental: The studies of PCI disappearance were carried out in the cell line Capan-1 by employing various concentrations of PCI.
In three small culture flasks (of 25 cm^2), 5×10^5 cells were placed in each and they were cultivated in medium DMEM+10%FBS until the moment in which, through microscope observation, it could be seen that they had reached 75% of confluence. At this moment, the medium was removed and was substituted by new DMEM+10%FBS (50 μg/mL flask) and by medium with 200 μg/mL of PCI (flask 200 μg/mL). The three flasks were cultivated for a further 24 h. From each of these, samples of […] of culture medium were extracted at half hour intervals. In each of these samples, the existing concentration of PCI was determined by employing two methods (described in the bibliography cited in point 4.A.):
Tests of carboxypeptidase A inhibitory activity
In such tests, samples taken from the control flask at the same intervals were used as blanks.
One of the ELISAs that was done with the samples coming from the 200 μg/mL flask was carried out under special conditions in the first step (fixation of the antigens); concretely, by using a concentration of 0.5 M NaCl.

[2] = test system: human pancreatic adenocarcinoma cell line Capan-1; assay type: cell-based; details: SFM, 72 h
Experimental: Other kinds of tests were also carried out, the cells growing in serum-free medium as well; these were studies at short periods of time, 72 h, and of competitiveness with a growth factor plus wtPCI, PCIdelYVG or tail. […] The protocol employed was as follows:
1. In a culture plate of 96 wells, in 42 of which 5,000 cells per well were seed. The cells were placed in full medium (DMEM+10%FBS).
2. After 72 h, once the adhesion of the cells to the surface of the well had taken place, as well as their division, the medium was removed from the wells and to eliminate the remainder of the serum, 200 μL of PBS were added to each well.
3. The PBS was removed and 200 μL of DMEM-FBS were added.
4. After 24 h, the medium was removed and the following treatments were applied:
In 6 wells (control): 200 μL of serum-free medium (SFM) were added.
200 μL of SFM plus the indicated concentration of one of the growth factors and wtPCI were added in 6 wells at a final concentration of 50 μg/mL.
In 6 wells, 200 μL of SFM plus the indicated concentration of one of the growth factors and PCIdelYVG were added at a final concentration of 46 μg/mL. […]
4. Cells were kept in an incubator at 37° C., 87% of relative humidity and 10% of CO2.
5. After 72 h, the cellular growth per well was evaluated using the method detailed in the protocol of Section 4.B.2.a.

Substance: PCI: potato carboxypeptidase inhibitor, isoform IIa, obtained by recombinant DNA techniques in E. coli (SEQ ID NO.2) (EQHADPICNKPCKTHDDCSGAWFCQACWNSARTCGPYVG; disulfide 12-27, 18-34, 8-24)
- cell death (propydium iodure fluorescence) [1]: No significant difference in relation to the control group
- viability of the cells (BCECF-AM fluorescence) [1]: no decrease of viability being observed
- internalization (disappearance of PCI from the culture medium) (cell line Capan-1): clearly internalized by the cells
- Growth (Percentage in relation to the average of the controls) ([2]; EGF 10 ng/mL + 50 mg/mL wtPCI): 30.63%
- Growth (Percentage in relation to the average of the controls) ([2]; Insulin 5 mg/mL + 50 mg/mL wtPCI): 44.10%
